US8946149B2, “Use of exendin and analogs thereof to delay or prevent cardiac remodeling” (Amylin Pharmaceuticals, LLC, priority 2005, dated 2015)

Tests used:
MI-induced rat model [1] = assay: Whole body composition, heart, lung weight and infarct size in rats with CHF after LAD ligation; assay type: in vivo, Sprague-Dawley rats; settings: for B.W / Fat mass / Fluid mass / Infarct size / LV weight / LV weight/B.W. / Lean mass / Lung weight / Lung weight/B.W. / RV weight / RV weight/B.W.: 13th week of MI, mean ± SEM
Description: (§1) Male Sprague-Dawley® rats (250-300 g) are anesthetized by using 5% isoflurane and a left thoracotomy was performed. The left main anterior descending artery (LAD) was ligated to induce myocardial infarction. In addition, sham animals (n=10) were subjected to the same surgical procedure without ligation of the LAD.
(§2) After two weeks, rats were treated with 2.5 pmol/kg/min GLP-1 (n=11) (GLPL), 25 pmol/kg/min GLP-1 (n=12) (GLPH), 1.67 pmol/kg/min an exendin agonist, AC3174, (n=12) (AC3174L), 5 pmol/kg/min exendin agonist (n=7) (AC3174H), or vehicle (n=14) via subcutaneous infusion for 11 weeks. Echocardiography was performed at the 3rd, 5th, 9th, and 13th week of myocardial infarction. Left ventricular (LV) end systolic dimension (ESD) and diastolic dimension (EDD), LV systolic volume and diastolic volume, left atrial volume were recorded. At the 13th week of MI, the hearts were excised, the LV mass were weighed and LV mass/body weight ratio was determined.

MI-induced rat model [2] = assay: Echocardiography and cardiac function (E/A ratio, LVEDP, cardiac output, +dp/dtmax, LV dimensions) in rats after myocardial infarction; assay type: in vivo, Sprague-Dawley rats
Description: as §1, §2

MI-induced rat model [3] = assay: Treadmill test, plasma lactate and insulin sensitivity in rats after myocardial infarction; assay type: in vivo, Sprague-Dawley rats
cloned GLP-1 receptor = settings: transfected cells; cited from earlier work
[4] = GLPH: GLP-1 25 pmol/kg/min s.c. infusion 11 weeks
[5] = GLPL: GLP-1 2.5 pmol/kg/min s.c. infusion 11 weeks

GLP-1 (7-36) amide
reduction of infarct size compared to the control group (MI-induced rat model [1]; 25 pmol/kg/min s.c. infusion, p<0.05): 30%
B.W (MI-induced rat model [1]; [4]): 518 ± 12 g
Fat mass (MI-induced rat model [1]; [4]): 51 ± 9 g
Fluid mass (MI-induced rat model [1]; [4]): 331 ± 15 g
Infarct size (MI-induced rat model [1]; [4]): 29 ± 2%
LV weight (MI-induced rat model [1]; [4]): 1.13 ± 0.03 g
LV weight/B.W. (MI-induced rat model [1]; [4]): 0.22 ± 0.01 %
Lean mass (MI-induced rat model [1]; [4]): 35 ± 2 g
Lung weight (MI-induced rat model [1]; [4]): 1.66 ± 0.13 g
Lung weight/B.W. (MI-induced rat model [1]; [4]): 0.32 ± 0.02 %
RV weight (MI-induced rat model [1]; [4]): 0.23 ± 0.01 g
RV weight/B.W. (MI-induced rat model [1]; [4]): 0.04 ± 0.00 %
B.W (MI-induced rat model [1]; [5]): 523 ± 14 g
Fat mass (MI-induced rat model [1]; [5]): 45 ± 6 g
Fluid mass (MI-induced rat model [1]; [5]): 332 ± 11 g
Infarct size (MI-induced rat model [1]; [5]): 30 ± 2%
LV weight (MI-induced rat model [1]; [5]): 1.26 ± 0.05 g
LV weight/B.W. (MI-induced rat model [1]; [5]): 0.24 ± 0.01%
Lean mass (MI-induced rat model [1]; [5]): 37 ± 2 g
Lung weight (MI-induced rat model [1]; [5]): 1.94 ± 0.35 g
Lung weight/B.W. (MI-induced rat model [1]; [5]): 0.37 ± 0.07%
RV weight (MI-induced rat model [1]; [5]): 0.22 ± 0.01 g
RV weight/B.W. (MI-induced rat model [1]; [5]): 0.04 ± 0.00 %
effect on LV weight (summary) (MI-induced rat model [1]; chronic treatment): attenuated
effect on infarction size (summary) (MI-induced rat model [1]; chronic treatment): reduced
effect on the increase of E/A ratio during CHF progression (MI-induced rat model [2]; at each dose, s.c. infusion 11 weeks, 13 weeks after MI, vs control (+116% vs sham)): prevented increases
effect on enlargement of LV chamber (MI-induced rat model [2]; chronic treatment): slowed
effect on cardiac output (MI-induced rat model [2]; s.c. infusion 11 weeks, control reduced by 19% vs sham): normalized
effect on contractility (+dp/dtmax) (MI-induced rat model [2]; s.c. infusion 11 weeks, control reduced by 24% vs sham): normalized
effect on remodeling (LV mass, LV end diastolic dimension and systolic dimension increase) (MI-induced rat model [2]; s.c. infusion 11 weeks, progression of CHF): significantly reduced
effect on LV end diastolic pressure (LVEDP) elevation (MI-induced rat model [2]; s.c. infusion 11 weeks, vehicle group +97% vs sham): eliminated
effect on exercise capacity (EC) (MI-induced rat model [3]; at each dose, treadmill test): significantly improved
effect on exercise efficiency (EC/VO2) (MI-induced rat model [3]; at each dose, treadmill test): significantly improved
effect on baseline plasma lactate (MI-induced rat model [3]; chronic treatment): attenuated
effect on exercise capacity/peak lactate ratio (MI-induced rat model [3]; chronic treatment): improved
effect on insulin sensitivity (MI-induced rat model [3]; chronic treatment): improved

exendin[9-39]: truncated exendin peptide, a carboxyamidated molecule, antagonist of GLP-1
action at the cloned GLP-1 receptor (cAMP) (cloned GLP-1 receptor): antagonist
